The values below come from ChEMBL document CHEMBL1806482, “Flavans from Iris tenuifolia and their effects on β-amyloid aggregation and neural stem cells proliferation in vitro” (Bioorg Med Chem Lett, 2011).

SMILES strings stand for the structures. Calls of active or inactive are those of the source. The rule behind the calls is not given here.

A short description of test [1]: Inhibition of amyloid beta (1 to 40) aggregation after 30 mins by thioflavin T fluorescence assay.
For test [2], the system named is NSC. Briefly: Induction of NSC proliferation assessed as ATP level. It is filed as functional, cell-based.

Usually inhibition stands for how much of the control response was suppressed. A high value points to strong suppression. Molecule `COc1cc(OC)c2c(c1)O[C@H]1C[C@@H]2Oc2c(O)cccc21` gave an inhibition in test [1] of 19.8%. Besides, in test [2], the result was inactive. The like results for `O=C1CC(c2cccc(O)c2O)Oc2cc3c(c(O)c21)OCO3` (stereo not given) were, in that order, 61.7% and “Active”. In test [1], `C[C@H]1COC2=C1C(=O)C(=O)c1c2ccc2c1CCCC2(C)C` registered an inhibition of 43.7%.
